Activity calls are given as the source filed them. The calls are words filed in the database; no cut-off is given here.
Assays:
[1] = Cytotoxicity against mouse DLA cells after 48 hrs by trypan blue exclusion assay; assay type: functional, cell-based
[2] = (§1) Cytotoxicity against mouse DLA cells after 48 hrs by LDH release assay; assay type: functional, cell-based
[3] = Cytotoxicity against mouse DLA cells after 48 hrs by MTT assay; assay type: functional, cell-based
[4] = Cytotoxicity against mouse EAC cells after 48 hrs by MTT assay; assay type: functional, cell-based; conditions: Ehrlich
[5] = (§2) Cytotoxicity against mouse EAC cells after 48 hrs by LDH release assay; assay type: functional, cell-based; conditions: Ehrlich
[6] = Cytotoxicity against mouse EAC cells after 48 hrs by trypan blue exclusion assay; assay type: functional, cell-based; conditions: Ehrlich
Ehrlich [7] = assay: Antitumor activity against mouse EAC cells allografted in Swiss albino mouse assessed as condensed nucleus in tumor cells at 75 mg/kg, ip 3 doses administered every alternate days after three days of tumor growth; assay type: functional, organism-based; design: dose 75 mg/kg
Ehrlich [8] = assay: Antitumor activity against mouse EAC cells allografted in Swiss albino mouse assessed as DNA fragmentation in tumor cells at 75 mg/kg, ip 3 doses administered every alternate days after three days of tumor growth; assay type: functional, organism-based; design: dose 75 mg/kg
DLA [9] = assay: as §1; assay type: functional, cell-based
Mus musculus [10] = assay: Toxicity in Swiss albino mouse assessed as urea level at 75 mg/kg, ip administered for 10 days (reference value: 42 +/- 2.78 mg/dl); assay type: organism-based; design: dose 75 mg/kg, route intraperitoneal; conditions: in vivo, 240 h
Mus musculus [11] = assay: Toxicity in Swiss albino mouse assessed as creatinine level at 75 mg/kg, ip administered for 10 days (reference value: 0.59 +/- 1.05 mg/dl); assay type: organism-based; design: dose 75 mg/kg, route intraperitoneal; conditions: in vivo, 240 h
Mus musculus [12] = assay: Toxicity in Swiss albino mouse assessed as alkaline phosphatase level at 75 mg/kg, ip administered for 10 days (reference value: 128.55 +/- 2.55 IU/L); assay type: organism-based; design: dose 75 mg/kg, route intraperitoneal; conditions: in vivo, 240 h
Ehrlich [13] = assay: Antitumor activity against mouse EAC cells allografted in Swiss albino mouse assessed as irregular tumor cell shape at 75 mg/kg, ip 3 doses administered every alternate days after three days of tumor growth by Giemsa staining; assay type: functional, organism-based; design: dose 75 mg/kg
[14] = Antitumor activity against mouse EAC cells allografted in Swiss albino mouse assessed as increase in life span at 75 mg/kg, ip 3 doses administered every alternate days after three days of tumor growth (reference value: 10 days); assay type: functional, Ehrlich; conditions: route intraperitoneal
Mus musculus [15] = assay: Toxicity in Swiss albino mouse assessed as change in liver morphology at 75 mg/kg, ip administered for 10 days relative to untreated control; assay type: organism-based; design: dose 75 mg/kg, route intraperitoneal; conditions: in vivo, 240 h
Mus musculus [16] = assay: Antiangiogenic activity in mouse EAC cells allografted Swiss albino mouse model assessed as decrease in peritoneal angiogenesis at 75 mg/kg, ip 3 doses administered every alternate days after three days of tumor growth; assay type: functional, organism-based; design: dose 75 mg/kg; conditions: Ehrlich
Ehrlich [17] = assay: Antitumor activity against mouse EAC cells allografted in Swiss albino mouse assessed as membrane blebbing of tumor cells at 75 mg/kg, ip 3 doses administered every alternate days after three days of tumor growth by Giemsa staining; assay type: functional, organism-based; design: dose 75 mg/kg
Mus musculus [18] = assay: Antiangiogenic activity in mouse EAC cells allografted Swiss albino mouse model assessed as decrease in microvessel density in peritoneum at 75 mg/kg, ip 3 doses administered every alternate days after three days of tumor growth by hematoxylin and eosin staining method; assay type: functional, organism-based; design: dose 75 mg/kg; conditions: Ehrlich
Ehrlich [19] = assay: Antitumor activity against mouse EAC cells allografted in Swiss albino mouse assessed as decrease in ascites fluid secretion at 75 mg/kg, ip 3 doses administered every alternate days after three days of tumor growth; assay type: functional, organism-based; design: dose 75 mg/kg
Ehrlich [20] = assay: Antitumor activity against mouse EAC cells allografted in Swiss albino mouse assessed as formation of apoptotic bodies in tumor cells at 75 mg/kg, ip 3 doses administered every alternate days after three days of tumor growth by Giemsa staining; assay type: functional, organism-based; design: dose 75 mg/kg
[21] = Antitumor activity against mouse DLA cells allografted in Swiss albino mouse assessed as increase in lifespan at 75 mg/kg, ip administered alternate days total of 10 doses relative to untreated control; assay type: functional; conditions: route intraperitoneal
DLA [22] = assay: Antitumor activity against mouse DLA cells allografted in Swiss albino mouse assessed as tumor regression at 75 mg/kg, ip administered alternate days total of 10 doses measured on day 35 relative to untreated control; assay type: functional, organism-based; design: dose 75 mg/kg
[23] = Antitumor activity against mouse EAC cells allografted in Swiss albino mouse model assessed as increase in body weight at 75 mg/kg, ip 3 doses administered every alternate days after three days of tumor growth measured after 10 days; assay type: functional, Ehrlich; conditions: route intraperitoneal
Chorioallantoic membrane [24] = assay: Ex vivo antiangiogenic activity in 2 days fertilized chicken embryo chorioallantoic membrane model assessed as inhibition of rVEGF165-induced angiogenesis at 10 uM after 72 hrs by photographic analysis relative to control; assay type: functional, tissue-based; conditions: Gallus gallus
DLA [25] = assay: Antitumor activity against mouse DLA cells allografted in Swiss albino mouse assessed as inhibition of tumor growth measuring tumor volume at 75 mg/kg, ip administered alternate days total of 10 doses relative to untreated control; assay type: functional, organism-based; design: dose 75 mg/kg
Mus musculus [26] = assay: Toxicity in Swiss albino mouse assessed as change in spleen morphology at 75 mg/kg, ip administered for 10 days relative to untreated control; assay type: organism-based; design: dose 75 mg/kg, route intraperitoneal; conditions: in vivo, 240 h
Chorioallantoic membrane [27] = assay: In vivo antiangiogenic activity in 12 days fertilized chicken embryo chorioallantoic membrane model assessed as inhibition of rVEGF165-induced angiogenesis at 10 uM by photographic analysis relative to control; assay type: functional, organism-based; conditions: Gallus gallus
Ehrlich [28] = assay: as §2; assay type: functional, cell-based
Ehrlich [29] = assay: Antitumor activity against mouse EAC cells allografted in Swiss albino mouse assessed as tumor cell shrinkage at 75 mg/kg, ip 3 doses administered every alternate days after three days of tumor growth; assay type: functional, organism-based; design: dose 75 mg/kg
Ehrlich [30] = assay: Antitumor activity against ip dosed mouse EAC cells allografted in Swiss albino mouse assessed as decrease in body weight administered 3 doses every alternate days after three days of tumor growth; assay type: functional, organism-based
Ehrlich [31] = assay: Antitumor activity against mouse EAC cells allografted in Swiss albino mouse assessed as inhibition of tumor growth at 75 mg/kg, ip 3 doses administered every alternate days after three days of tumor growth; assay type: functional, organism-based; design: dose 75 mg/kg

SMILES: Cc1ccc(OCC(=O)NNC(=O)c2cc3ccccc3oc2=O)c(C(=O)c2ccc(Br)cc2)c1
- IC50 [1]: 95.5 µM
- IC50 [2]: 95.3 µM
- IC50 [3]: 92.2 µM
- IC50 [4]: 87.3 µM
- IC50 [5]: 89 µM
- IC50 [6]: 91.1 µM

SMILES: Cc1ccc(C(=O)c2cc(C)ccc2OCC(=O)NNC(=O)c2cc3ccccc3oc2=O)cc1
- IC50 [1]: 87.3 µM
- IC50 [2]: 87.2 µM
- IC50 [3]: 84.6 µM
- IC50 [4]: 78.1 µM
- IC50 [5]: 81.4 µM
- IC50 [6]: 82.6 µM

SMILES: Cc1ccc(OCC(=O)NNC(=O)c2cc3ccccc3oc2=O)c(C(=O)c2cccc(Br)c2)c1
- IC50 [1]: 71.9 µM
- IC50 [2]: 69.8 µM
- IC50 [3]: 68.5 µM
- IC50 [4]: 66.4 µM
- IC50 [5]: 68.1 µM
- IC50 [6]: 68.5 µM

SMILES: Cc1ccc(OCC(=O)NNC(=O)c2cc3ccccc3oc2=O)c(C(=O)c2cccc(Cl)c2)c1
- IC50 [1]: 68.6 µM
- IC50 [2]: 67.4 µM
- IC50 [3]: 65.5 µM
- IC50 [4]: 64.9 µM
- IC50 [5]: 65.4 µM
- IC50 [6]: 67.3 µM

SMILES: Cc1ccc(OCC(=O)NNC(=O)c2cc3ccccc3oc2=O)c(C(=O)c2ccccc2)c1
- IC50 [1]: 89.1 µM
- IC50 [2]: 87 µM
- IC50 [3]: 86.4 µM
- IC50 [4]: 78.4 µM
- IC50 [5]: 81.1 µM
- IC50 [6]: 86.5 µM

SMILES: Cc1ccc(OCC(=O)NNC(=O)c2cc3ccccc3oc2=O)c(C(=O)c2ccc(F)cc2)c1
- IC50 [1]: 46.1 µM
- IC50 [2]: 45.7 µM
- IC50 [3]: 43.4 µM
- IC50 [4]: 39.7 µM
- IC50 [5]: 40.8 µM
- IC50 [6]: 43.4 µM

SMILES: O=c1[nH]cc(F)c(=O)[nH]1 [FLUOROURACIL]
- IC50 [1]: 14.3 µM
- IC50 [2]: 15.8 µM
- IC50 [3]: 15.7 µM
- IC50 [4]: 14.3 µM
- IC50 [5]: 16.3 µM
- IC50 [6]: 16.4 µM

SMILES: Cc1ccc(OCC(=O)NNC(=O)c2cc3ccccc3oc2=O)c(C(=O)c2ccccc2Cl)c1
- IC50 [1]: 54.8 µM
- IC50 [2]: 54.4 µM
- IC50 [3]: 53.8 µM
- IC50 [4]: 45.2 µM
- IC50 [5]: 47.6 µM
- IC50 [6]: 48.4 µM

SMILES: COc1ccc(C(=O)c2cc(C)ccc2OCC(=O)NNC(=O)c2cc3ccccc3oc2=O)cc1
- IC50 [1]: 43.5 µM
- IC50 [2]: 43.4 µM
- IC50 [3]: 42 µM
- IC50 [4]: 38.4 µM
- IC50 [5]: 41.2 µM
- IC50 [6]: 41.2 µM

SMILES: Cc1ccc(OCC(=O)NNC(=O)c2cc3ccccc3oc2=O)c(C(=O)c2ccccc2Br)c1
- IC50 [1]: 10 µM
- Activity (Ehrlich [7]): Active
- Activity (Ehrlich [8]): Active
- IC50 [2]: 10.6 µM
- Activity (DLA [9]): Dose-dependent effect
- Activity (Mus musculus [10]): 39 mg/dL
- Activity (Mus musculus [11]): 0.5 mg/dL
- Activity (Mus musculus [12]): 132.65 IU/L
- Activity (Ehrlich [13]): Active
- IC50 [3]: 10 µM
- Time [14]: 23 days
- Activity (Mus musculus [15]): Non-toxic
- Activity (Mus musculus [16]): Active
- Activity (Ehrlich [17]): Active
- IC50 [4]: 8 µM
- Activity (Mus musculus [18]): Active
- Activity (Ehrlich [19]): Active
- Activity (Ehrlich [20]): Active
- fold change (FC) [21]: 3
- Activity (DLA [22]): Active
- Activity [23]: 10%
- inhibition (Chorioallantoic membrane [24]): Active
- TGI (DLA [25]): Active
- Activity (Mus musculus [26]): Non-toxic
- inhibition (Chorioallantoic membrane [27]): Active
- IC50 [5]: 9.4 µM
- Activity (Ehrlich [28]): Dose-dependent effect
- Activity (Ehrlich [29]): Active
- IC50 [6]: 9 µM
- Activity (Ehrlich [30]): Dose-dependent effect
- TGI (Ehrlich [31]): Active

SMILES: Cc1ccc(OCC(=O)NNC(=O)c2cc3ccccc3oc2=O)c(C(=O)c2ccc(Cl)cc2)c1
- IC50 [1]: 61.6 µM
- IC50 [2]: 60.4 µM
- IC50 [3]: 59.1 µM
- IC50 [4]: 56.6 µM
- IC50 [5]: 58 µM
- IC50 [6]: 57.8 µM

Reference: ChEMBL document CHEMBL3124755, “Synthesis and tumor inhibitory activity of novel coumarin analogs targeting angiogenesis and apoptosis” (Eur J Med Chem, 2014)
